# Data as given in EP3119416B1, “THERAPEUTIC USE OF ADIPOKINETIC HORMONE/RED PIGMENT-CONCENTRATING HORMONE (AKH/RPCH) FAMILY OF PEPTIDES” (Mutlu, Oguz, priority 2015, dated 2017).
# Square brackets hold non-standard residues; d marks the D form. Peptide text beside a SMILES is read from it. pGlu = O=C1CC[C@@H](C(=O)O)N1
# Legend:
# [1] = system: adult females of the firebug, Pyrrhocoris apterus (L.); conditions: adult female firebugs, cited from earlier work; for walking activity: simultaneously with elevation of lipid level in the haemolymph
# [2] = system: BALB/c ByJ mice; test: Locomotor activity test (open field); type: in vivo; conditions: for locomotion enhancing effects in the locomotor activity test: male balb-c mice
# Description: (§1) Male, inbred BALB/c ByJ mice (Uludag University, Bursa, Turkey), 7-8 weeks old at their arrival to the laboratory, were used in this study. They were kept in the laboratory for two weeks before the onset of the experiments. Mice were maintained under standard laboratory conditions (12-h light: 12-h dark cycle, lights on 07:00 h, T=21±1°C). All animals received food and water ad libitum. All procedures described in this assay were conducted in accordance with the European Community Council's Directive for the ethical treatment of animals (86/609/EEC) and with the approval of the Kocaeli University Medical Faculty (7/3/2014).
# (§2) In the FST, EPM, and locomotor activity tests, the animals were treated with Ani-AKH (1 and 2 mg/kg) (n=9-10), Lia-AKH (1 and 2 mg/kg) (n=10-12) and Pht-HrTH (1 and 2 mg/kg) (n=10-12) or vehicle (saline with 1% DMSO) (n= 10) for 14 days (chronically) and the drugs were administered intraperitoneally (i.p.) 60 min. before each test in a volume of 0.1 ml/10 g body weight. Separate group of animals used in each test.
# Locomotor activity was measured using an open field test in a square arena (40 x 40 x 40 cm box). The animal was placed in the center of the apparatus and behaviours were recorded for a period of 5 min using the Etovision-XT video tracking system. The locomotor activity was evaluated by measuring the total distance travelled (cm) in the apparatus and the speed (cm/s) of the animals.
# (§3) The results of the FST, EPM, locomotor activity tests were evaluated by one-way ANOVA followed by Tukey's post-hoc test when significant differences were detected. The data are expressed as the mean values ± SEM. The differences were considered to be statistically significant when p was less than 0.05.
# [3] = system: BALB/c ByJ mice; test: Elevated Plus-Maze Test (EPM); type: in vivo
# Description: as §1, §2
# In addition, in the EPM (acute) test, Ani- AKH (0.5 and 1 mg/kg) (n= 10 per group) was also administered, just for one time, before the test to investigate the acute effect of the hormone.
# Anxiety related behaviour was measured by the elevated plus-maze test. Experiments were conducted in a dimly lit, semi-soundproof room, illuminated with table lamp (80 lux). Maze was made of wood and consisted of two open (29 cm long × 5 cm wide) and closed arms (29 cm × 5 cm with 15 cm high walls) forming a square cross with a 5 cm square center piece. In order to avoid falls the open arms was surrounded by a short (1 cm) Plexiglas edge. The maze was elevated 40 cm above the floor. Each mice was placed at the center of the maze, facing one of the open arms, and was allowed to explore the maze. The open-arm activity was evaluated as: 1) time spent in the open arms relative to the total time spent in the plus maze (300 s), expressed as a percentage 2) number of entries into the open arms relative to the total number of entries into both open and closed arms, expressed as a percentage. These values were accepted as indexes of anxiety in mice.
# as §3
# [4] = system: BALB/c ByJ mice; test: Forced Swim Test (FST); type: in vivo; conditions: for immobility time: 60 min before test, compared to control group, Fig 1a/1b; for antidepressant effects in the forced swimming test: male balb-c mice
# Description: as §1, §2
# The FST employed was similar to a previously described method (Porsolt et al, 1977). Briefly, the mice were dropped individually into Plexiglas cylinders (height 25 cm, diameter 10 cm) containing 10 cm of water maintained at 23-25°C and left there for 6 min. Because this is a situation from which they cannot escape, the animals rapidly become immobile, that is, floating in an upright position and making only small movements to keep their heads above water. The duration of immobility was recorded during the last 4 min of the 6-min testing period.
# as §3
# [5] = system: Emperor dragonfly, Anax imperator; conditions: low concentrations of the synthetic peptide injected into the Emperor dragonfly; cited from earlier work
# [6] = system: Albino Swiss mice; conditions: cited from earlier work
# [7] = system: Albino Swiss mice; conditions: administered intracerebroventricularly to mice; cited from earlier work
# [8] = system: Albino Swiss mice; conditions: cited from earlier work; remark: listed apart in the source
# [9] = system: Albino Swiss mice; conditions: injection to Albino Swiss mice (20-25 g); cited from earlier work
# [10] = 2 mg/kg i.p. for 14 days, compared to control, Fig 3a/3c
# [11] = 2 mg/kg i.p. for 14 days, compared to control, Fig 3b/3d
# [12] = chronic, 2 mg/kg i.p. for 14 days, Fig 2c/2e
# [13] = chronic, 2 mg/kg i.p. for 14 days, Fig 2d/2f
# [14] = chronic, 1 mg/kg i.p. for 14 days, Fig 2c/2e
# [15] = chronic, 1 mg/kg i.p. for 14 days, Fig 2d/2f
molecule,measurement,setting,value
NC[C@H](O)c1ccc(O)c(O)c1 [norepinephrine],AKHs level in haemolymph,[1],increased
same,level of AKHs in CNS,[1],no effect
same,mobilization of the fat body lipids,[1],mobilized
same,walking activity,[1],capable to enhance
"CC(C)[C@H](NC(=O)[C@@H]1CCC(=O)N1)C(=O)N[C@@H](CC(N)=O)C(=O)N[C@@H](Cc1ccccc1)C(=O)N[C@H](C(=O)N1CCC[C@H]1C(=O)N[C@@H](CO)C(=O)N[C@@H](Cc1c[nH]c2ccccc12)C(N)=O)[C@@H](C)O [Lia-AKH, 5-oxo-L-prolyl-L-valyl-L-asparaginyl-L-phenylalanyl-L-threonyl-L-prolyl-L-seryl-L-Tryptophanamide] ([pGlu]VNFTPSW-NH2)",total distance moved,"[2]; 1 mg/kg i.p. for 14 days, compared to control, Fig 3c",increased
same,speed of the animals,"[2]; 1 mg/kg i.p. for 14 days, compared to control, Fig 3d",increased
same,locomotion enhancing effects in the locomotor activity test,[2]; 1 mg/kg i.p.,had locomotion enhancing effects
same,total distance moved,[2]; [10],increased
same,speed of the animals,[2]; [11],increased
same,locomotion enhancing effects in the locomotor activity test,[2]; 2 mg/kg i.p.,had locomotion enhancing effects
same,%time spent in the open arms,[3]; [12],significantly increased
same,%open arm/total arm entries,[3]; [13],significantly increased
same,anxiolytic effects in the elevated plus maze test,"[3]; given chronically, 2 mg/kg",had anxiolytic effects
same,immobility time,[4]; 1 mg/kg i.p. for 14 days,significantly diminished
same,antidepressant effects in the forced swimming test,[4]; 1 mg/kg i.p.,had antidepressant effects
same,immobility time,[4]; 2 mg/kg i.p. for 14 days,significantly diminished
same,antidepressant effects in the forced swimming test,[4]; 2 mg/kg i.p.,had antidepressant effects
NCCc1ccc(O)c(O)c1 [dopamine],AKHs level in haemolymph,[1],decreased
same,level of AKHs in CNS,[1],no effect
same,mobilization of the fat body lipids,[1],mobilized
same,walking activity,[1],capable to enhance
"CC(C)[C@H](NC(=O)[C@@H]1CCC(=O)N1)C(=O)N[C@@H](CC(N)=O)C(=O)N[C@@H](Cc1ccccc1)C(=O)N[C@@H](CO)C(=O)N1CCC[C@H]1C(=O)N[C@@H](CO)C(=O)N[C@@H](Cc1c[nH]c2ccccc12)C(N)=O [Ani-AKH, 5-oxo-L-prolyl-L-valyl-L-asparaginyl-L-phenylalanyl-L-seryl-L-prolyl-L-seryl-L-Tryptophanamide] ([pGlu]VNFSPSW-NH2)",total distance moved,[2]; [10],increased
same,speed of the animals,[2]; [11],increased
same,locomotion enhancing effects in the locomotor activity test,[2]; 2 mg/kg i.p.,had locomotion enhancing effects
same,haemolymph lipid concentration,[5],increased
same,%time spent in the open arms,"[3]; acute, 0.5 mg/kg i.p., one time before the test, Fig 2a",significantly increased
same,%open arm/total arm entries,"[3]; acute, 1 mg/kg i.p., one time before the test, Fig 2b",significantly increased
same,anxiolytic effects in the elevated plus maze test,"[3]; administered acutely, 0.5 mg/kg",had anxiolytic effects
same,anxiolytic effects in the elevated plus maze test,"[3]; administered acutely, 1 mg/kg",had anxiolytic effects
same,%time spent in the open arms,[3]; [14],didn't alter
same,%open arm/total arm entries,[3]; [15],didn't alter
same,%time spent in the open arms,[3]; [12],didn't alter
same,%open arm/total arm entries,[3]; [13],didn't alter
same,immobility time,[4]; 1 mg/kg i.p. for 14 days,significantly diminished
same,antidepressant effects in the forced swimming test,[4]; 1 mg/kg i.p.,had antidepressant effects
same,immobility time,[4]; 2 mg/kg i.p. for 14 days,significantly diminished
same,antidepressant effects in the forced swimming test,[4]; 2 mg/kg i.p.,had antidepressant effects
"CC(C)C[C@H](NC(=O)[C@@H]1CCC(=O)N1)C(=O)N[C@H](C(=O)N[C@@H](Cc1ccccc1)C(=O)N[C@@H](CO)C(=O)N1CCC[C@H]1C(=O)N[C@@H](CC(=O)O)C(=O)N[C@@H](Cc1c[nH]c2ccccc12)C(N)=O)[C@@H](C)O [Pht-HrTH, 5-oxo-L-prolyl-L-leucyl-L-threonyl-L-phenylalanyl-L-seryl-L-prolyl-L-alfa-aspartyl-L-Tryptophanamide] ([pGlu]LTFSPDW-NH2)",locomotion enhancing effects in the locomotor activity test,"[2]; dose not given, i.p.",had locomotion enhancing effects
same,total distance moved,"[2]; dose not printed in the sentence (groups 1 and 2 mg/kg i.p. for 14 days), Fig 3c",increased
same,speed of the animals,"[2]; dose not printed in the sentence (groups 1 and 2 mg/kg i.p. for 14 days), Fig 3d",increased
same,%time spent in the open arms,[3]; [14],significantly increased
same,%open arm/total arm entries,[3]; [15],significantly increased
same,%time spent in the open arms,[3]; [12],significantly increased
same,%open arm/total arm entries,[3]; [13],significantly increased
same,anxiolytic effects in the elevated plus maze test,"[3]; given chronically, 1 mg/kg",had anxiolytic effects
same,anxiolytic effects in the elevated plus maze test,"[3]; given chronically, 2 mg/kg",had anxiolytic effects
same,immobility time,[4]; 1 mg/kg i.p. for 14 days,significantly diminished
same,antidepressant effects in the forced swimming test,[4]; 1 mg/kg i.p.,had antidepressant effects
same,immobility time,[4]; 2 mg/kg i.p. for 14 days,significantly diminished
same,antidepressant effects in the forced swimming test,[4]; 2 mg/kg i.p.,had antidepressant effects
NCC(O)c1ccc(O)cc1 (stereo not shown) [octopamine],mobilization of the fat body lipids,[1],mobilized
NCCc1c[nH]cn1 [histamine],mobilization of the fat body lipids,[1],mobilized
[pGlu]VNFSPNW-NH2 [periplanetin CC-1],mortality in pentetrazole-induced seizures,[6],increased
same,threshold for tonic seizures,[6]; pentetrazole-induced seizures,decreased
same,peripheral blood glucose level,[7],did not increase
same,influence on the electric convulsions,[8],no influence
same,analgesic activity,[9],strong analgesic activity
NCCc1c[nH]c2ccc(O)cc12 [serotonin],mobilization of the fat body lipids,[1],mobilized
